# Assay results reported in patent publication US20020151459A1, “Methods for identifying compounds useful for inhibiting farnesyl diphosphate synthase” (Merck & Co., Inc., priority 2000, published 2002).
# Entries after “also recorded” stand apart in the source; their conditions may differ.
# Columns and labels:
# [1] = target: T1, rat liver squalene synthase (Rattus norvegicus, UniProt Q02769); settings: cited from earlier work
# T1 construct: host or cells: rat liver
# T1 sequence (Q02769 1-416): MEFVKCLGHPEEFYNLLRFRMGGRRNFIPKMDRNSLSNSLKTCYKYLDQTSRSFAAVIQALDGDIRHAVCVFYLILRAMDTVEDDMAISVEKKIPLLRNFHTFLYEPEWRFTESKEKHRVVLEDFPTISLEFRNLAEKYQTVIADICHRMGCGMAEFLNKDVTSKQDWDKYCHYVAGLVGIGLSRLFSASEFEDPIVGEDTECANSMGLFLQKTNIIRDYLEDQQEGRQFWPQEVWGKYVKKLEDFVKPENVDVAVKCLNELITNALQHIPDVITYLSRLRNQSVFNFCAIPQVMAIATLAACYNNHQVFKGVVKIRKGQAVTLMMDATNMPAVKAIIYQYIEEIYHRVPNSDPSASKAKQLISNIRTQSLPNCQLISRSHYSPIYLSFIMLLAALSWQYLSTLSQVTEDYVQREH
# [2] = target: T2, human recombinant farnesyl diphosphate synthase (Homo sapiens, UniProt P14324)
# T2 sequence (P14324 67-419 limits assumed): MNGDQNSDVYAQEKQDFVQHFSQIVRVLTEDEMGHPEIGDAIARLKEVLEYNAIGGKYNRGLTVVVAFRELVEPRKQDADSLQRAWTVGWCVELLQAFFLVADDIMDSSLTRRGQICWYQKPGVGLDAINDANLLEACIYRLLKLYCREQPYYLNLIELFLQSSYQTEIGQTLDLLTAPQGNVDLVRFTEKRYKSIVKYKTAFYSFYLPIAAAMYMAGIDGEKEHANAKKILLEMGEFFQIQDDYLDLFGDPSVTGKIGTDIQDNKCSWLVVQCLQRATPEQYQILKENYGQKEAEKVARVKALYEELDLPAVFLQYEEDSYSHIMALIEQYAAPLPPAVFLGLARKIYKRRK
# [3] = target: T2, human recombinant farnesyl diphosphate synthase; assay: biochemical
# sterol synthesis = settings: read-out: IC50, block of sterol synthesis; incorporation of 14C-MVA into sterol, rat liver cell-free system; cited from earlier work
# osteoclasts in culture = settings: cited from earlier work
# [4] = target: geranylgeranyl protein transferase I (GGTase I) (Homo sapiens, UniProt P49354+P53609)
# [5] = target: geranylgeranyl protein transferase II (GGTase II) (Homo sapiens, UniProt P53611+Q92696)
# Chain of geranylgeranyl protein transferase II (GGTase II) (Q92696 whole entry): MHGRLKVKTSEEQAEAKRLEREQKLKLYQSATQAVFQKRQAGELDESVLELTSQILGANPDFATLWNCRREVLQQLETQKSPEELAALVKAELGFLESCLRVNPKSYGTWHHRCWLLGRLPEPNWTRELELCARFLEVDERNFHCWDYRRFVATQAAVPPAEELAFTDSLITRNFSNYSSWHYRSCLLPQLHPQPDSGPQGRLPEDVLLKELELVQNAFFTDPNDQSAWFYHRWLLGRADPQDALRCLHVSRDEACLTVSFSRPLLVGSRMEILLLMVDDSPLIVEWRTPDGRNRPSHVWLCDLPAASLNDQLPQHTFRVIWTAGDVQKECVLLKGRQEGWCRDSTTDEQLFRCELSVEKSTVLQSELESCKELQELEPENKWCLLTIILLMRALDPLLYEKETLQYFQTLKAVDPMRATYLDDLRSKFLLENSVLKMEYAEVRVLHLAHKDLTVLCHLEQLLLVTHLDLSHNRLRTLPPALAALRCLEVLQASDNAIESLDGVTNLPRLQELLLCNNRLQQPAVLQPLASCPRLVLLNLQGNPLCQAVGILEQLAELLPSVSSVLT
# Chain of geranylgeranyl protein transferase II (GGTase II) (P53611 whole entry): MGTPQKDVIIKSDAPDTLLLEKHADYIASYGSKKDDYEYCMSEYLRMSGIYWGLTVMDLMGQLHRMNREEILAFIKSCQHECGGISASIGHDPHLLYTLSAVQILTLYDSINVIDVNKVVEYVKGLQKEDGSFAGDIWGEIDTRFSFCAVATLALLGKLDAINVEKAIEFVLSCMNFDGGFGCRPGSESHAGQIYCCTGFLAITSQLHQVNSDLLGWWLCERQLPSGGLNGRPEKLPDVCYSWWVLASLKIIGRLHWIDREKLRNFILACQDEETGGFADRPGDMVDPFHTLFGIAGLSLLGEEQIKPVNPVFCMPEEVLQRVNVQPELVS
# [6] = test system: protein prenylation in osteoclasts; assay: cells; settings: Mus musculus, Osteoclast, read-out: IC50, labeling of prenylated proteins, osteoclasts, 15 μM lovastatin, 2 hours pretreatment, 3 hours of labeling
# [7] = target: Farnesyl protein transferase (FTase) (Homo sapiens, UniProt P49354+P49356)
# [8] = test system: protein prenylation in osteoclasts; settings: at 60 μM
# [9] = test system: mevalonate-derived non-saponifiable lipids in osteoclasts; settings: alendronate 0-60 μM
# [10] = test system: mevalonate-derived non-saponifiable lipids in osteoclasts; assay: cells; settings: Mus musculus, Osteoclast, read-out: IC50, incorporation of label from MVL into non-saponifiable lipids, osteoclasts, 2 hours pretreatment, 3 hours of labeling
smiles,measurement,setting,value
"O=P(O)(O)C(NC1CCCCCC1)P(=O)(O)O [YM 175, Cycloheptylaminomethylene-1,1-bisphosphonic acid]",inhibition of squalene synthase (in words),[1],"potent, nanomolar inhibitors"
"O=P(O)(O)C(O)(CCN1CCCC1)P(=O)(O)O [EB 1053, 1-hydroxy-3-(1-pyrrolidinyl)-propylidene-1,1-bisphosphonic acid]",inhibition of squalene synthase (in words),[1],"potent, nanomolar inhibitors"
"O=P(O)(O)C(Cl)(Cl)P(=O)(O)O [clodronate, 1,1-dichloromethylene-1,1-diphosphonic acid]",inhibition of FPP synthase (in words),[2],no inhibition observed; also recorded: little or no effect
"CC(O)(P(=O)(O)O)P(=O)(O)O [etidronate, 1-hydroxyethane-1,1-diphosphonic acid]",inhibition of FPP synthase (in words),[2],little or no effect
same,IC50,[3],80 µM
"NCCC(O)(P(=O)(O)O)P(=O)(O)O [pamidronate, 3-amino-1-hydroxypropylidene-1,1-bisphosphonic acid]",IC50,sterol synthesis,0.42 µM
same,inhibition of FPP synthase (in words),[2],effectively inhibit
same,inhibition of squalene synthase (in words),[1],comparatively little effect
CC[C@H](C)C(=O)O[C@H]1C[C@@H](C)C=C2C=C[C@H](C)[C@H](CC[C@@H]3C[C@@H](O)CC(=O)O3)[C@H]21 [lovastatin],osteoclast formation and bone resorption (in words),osteoclasts in culture,inhibited
"NCCCC(O)(P(=O)(O)O)P(=O)(O)O [alendronate, 4-amino-1-hydroxybutylidene-1,1-bisphosphonic acid monosodium trihydrate]",IC50,sterol synthesis,0.168 µM
same,osteoclast formation and bone resorption (in words),osteoclasts in culture,inhibited
same,inhibition of FPP synthase (in words),[2],effectively inhibit
same,inhibition of GGTase I (in words),[4],not inhibited
same,inhibition of GGTase II (in words),[5],not inhibited
same,IC50,[6],~15 µM
same,inhibition of squalene synthase (in words),[1],comparatively little effect
same,inhibition of FTase (in words),[7],not inhibited
same,labeling of prenylated proteins (in words),[8],essentially disappears
same,lowering of incorporation of label from MVL into non-saponifiable lipids,[9],up to 80%
same,IC50,[10],~15 µM
